Earlier results on two compounds are cited in patent US10391330B2, “Non-invasive systems and methods for in-situ photobiomodulation” (priority 2008, dated 2019).

The test system of one data set is T cells. As to conditions: combination with UVA radiation.
For data set [1] the following is noted: clinical use.

For the compound `COc1c2occc2cc2ccc(=O)oc12` [Compound 8-MOP, 8-methoxypsoralen], in the data set with T cells, the “apoptosis of the treated T cells” value is listed as “causes apoptosis”.
Turning to `Oc1cccc(-c2c3nc(c(-c4cccc(O)c4)c4ccc([nH]4)c(-c4cccc(O)c4)c4nc(c(-c5cccc(O)c5)c5ccc2[nH]5)CC4)C=C3)c1` [Foscan, Tetra (m-hydroxyphenyl) chlorin], the “duration of skin photosensitivity” value in data set [1] is “approximately 2 weeks”.
